Measurements published in patent US10471060B2, “Amino pyrimidine compounds useful as SSAO inhibitors” (Eli Lilly and Company, priority 2017, dated 2019).

Tests used:
[1] = tested on: SSAO; assay: SSAO Target Engagement: residual SSAO activity in rat plasma and liver after dosing; format: in vivo; settings: for SSAO Activity (%) Liver 24 hours / SSAO Activity (%) Plasma 2 hours / SSAO Activity (%) Plasma 24 hours: mean ± SEM, n = 6
Experimental: The SSAO activity in rat plasma and liver tissues are measured using the MAO-Glo™ assay kit from Promega (V1402). The residual SSAO activity in rats after compound treatment is estimated by measuring the total amine oxidase activity in plasma or liver lysates that are insensitive to the presence of the MAO inhibitor Clogyline and Pargyline. Rats are administered the compound of Example 1 at the doses of 15, 3, 0.6, 0.12, 0.025, 0.005 mg/kg. The control group is administered with the same volume (2 ml/kg) of the dosing vehicle (hydroxyethyl cellulose 1% w/v, 0.25% Tween 80). Plasma and liver at 2 or 24 hrs post compound treatment are harvested and stored at −78° C. until analysis. Tissue lysates are prepared by homogenization in a lysis buffer (20 mM HEPES, pH 7.4, 150 mM NaCl, 1 mM EDTA, 1 mM EGTA, 1% Triton X-100 and 1× Roche Complete protease inhibitor tablet). Tissue particles are removed by centrifugation at 12,000 rpm at 4° C. for 30 min. 40 μl of plasma or liver lysates is incubated with Clogyline (10 μM) and Pargyline (10 μM) for 20 min. at room temperature before the addition of the luminogenic substrate (50 μM) for 60 min. The product generated is quantified according to the manufacture's procedure. The fraction of activity that is insensitive to the presence of the MAO inhibitors is used as the surrogate for the residual SSAO activity. The compound of Example 1 is evaluated in the protocol essentially as described above administered at various doses.

[2] = biological target: T1, recombinant hSSAO (Homo sapiens, UniProt Q16853); assay: SSAO/VAP-1 in vitro amine oxidase activity, MAO-Glo assay; format: biochemical; settings: mean±standard deviation, n=5; substrate 10 μM, pH 7.4; read-out: hSSAO inhibition IC50
T1 sequence (Q16853 1-763): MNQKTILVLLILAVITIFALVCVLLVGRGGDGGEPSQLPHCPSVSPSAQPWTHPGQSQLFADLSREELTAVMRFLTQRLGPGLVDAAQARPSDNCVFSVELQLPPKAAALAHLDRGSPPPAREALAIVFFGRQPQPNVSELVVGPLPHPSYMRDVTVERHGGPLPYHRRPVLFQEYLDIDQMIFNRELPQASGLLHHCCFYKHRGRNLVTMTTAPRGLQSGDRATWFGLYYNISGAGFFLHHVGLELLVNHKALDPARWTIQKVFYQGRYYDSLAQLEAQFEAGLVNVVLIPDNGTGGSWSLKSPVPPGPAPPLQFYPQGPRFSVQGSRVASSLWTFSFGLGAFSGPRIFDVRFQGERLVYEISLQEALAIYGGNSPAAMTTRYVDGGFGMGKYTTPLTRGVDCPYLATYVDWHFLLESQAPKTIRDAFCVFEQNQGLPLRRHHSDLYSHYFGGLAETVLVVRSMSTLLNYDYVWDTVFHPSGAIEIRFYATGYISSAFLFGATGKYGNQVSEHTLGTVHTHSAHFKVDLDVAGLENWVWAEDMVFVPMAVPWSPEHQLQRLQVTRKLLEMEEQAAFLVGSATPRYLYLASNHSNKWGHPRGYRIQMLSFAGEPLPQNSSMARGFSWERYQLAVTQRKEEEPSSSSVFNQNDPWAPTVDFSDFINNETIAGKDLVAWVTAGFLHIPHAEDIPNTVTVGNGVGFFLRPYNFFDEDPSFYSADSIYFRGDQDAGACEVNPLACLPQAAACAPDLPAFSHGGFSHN
Experimental: Amine oxidase activity of recombinant hSSAO, hMAOa, and hMAOb isoforms are measured using the MAO-Glo™ assay kit from Promega (V1402). Test compounds (with DMSO as vehicle, 0.5% v/v for SSAO) and the enzyme are incubated for 10 mins at room temperature before the addition of the luminogenic substrate. The substrate concentration is 10 μM for human recombinant SSAO. The assays are conducted in a pH 7.4 buffer (50 mM HEPES, 120 mM NaCl, 5 mM KCl, 2 mM CaCl2, 1.4 mM MgCl2, 0.001% Tween-20) in a well-plate. Oxidation of the substrate is conducted for 2 hrs before the addition of detecting reagent according the manufacture's protocol. The IC50 value of the tested compounds is calculated by fitting the dose response curve using a 4-parameter non-linear regression routine.

CN1CCC2(CCN(c3ncc(OC/C(=C/F)CN)cn3)CC2)C1=O.Cl.Cl [Example 1, 8-[5-[(E)-2-(Aminomethyl)-3-fluoro-allyloxy]pyrimidin-2-yl]-2-methyl-2,8-diazaspiro[4.5]decan-1-one Dihydrochloride]
SSAO Activity (%) Liver 24 hours ([1]; dose 0.005 mg/kg): 79 ± 13%
SSAO Activity (%) Plasma 2 hours ([1]; dose 0.005 mg/kg): 76 ± 3%
SSAO Activity (%) Plasma 24 hours ([1]; dose 0.005 mg/kg): 81 ± 4%
SSAO Activity (%) Liver 24 hours ([1]; dose 0.025 mg/kg): 59 ± 14%
SSAO Activity (%) Plasma 2 hours ([1]; dose 0.025 mg/kg): 35 ± 4%
SSAO Activity (%) Plasma 24 hours ([1]; dose 0.025 mg/kg): 67 ± 10%
SSAO Activity (%) Liver 24 hours ([1]; dose 0.12 mg/kg): 28 ± 5%
SSAO Activity (%) Plasma 2 hours ([1]; dose 0.12 mg/kg): 17 ± 1%
SSAO Activity (%) Plasma 24 hours ([1]; dose 0.12 mg/kg): 39 ± 4%
SSAO Activity (%) Liver 24 hours ([1]; dose 0.6 mg/kg): 24 ± 6%
SSAO Activity (%) Plasma 2 hours ([1]; dose 0.6 mg/kg): 13.4 ± 2.4%
SSAO Activity (%) Plasma 24 hours ([1]; dose 0.6 mg/kg): 31 ± 3%
SSAO Activity (%) Liver 24 hours ([1]; dose 3 mg/kg): 6 ± 4%
SSAO Activity (%) Plasma 2 hours ([1]; dose 3 mg/kg): 5.9 ± 1.6%
SSAO Activity (%) Plasma 24 hours ([1]; dose 3 mg/kg): 19 ± 2%
SSAO Activity (%) Liver 24 hours ([1]; dose 15 mg/kg): −0.63 ± 1.1%
SSAO Activity (%) Plasma 2 hours ([1]; dose 15 mg/kg): 3.1 ± 0.9%
SSAO Activity (%) Plasma 24 hours ([1]; dose 15 mg/kg): 14 ± 1%
inhibition of SSAO activity in rat plasma and liver tissue (in words) ([1]; doses 0.005 to 15 mg/kg): dose-dependently inhibits SSAO activity
IC50 [2]: 19.4 ± 5.68 nM
